This note sets out measurements from patent publication US12043613B2, “Inhibitors of SARM1” (Disarm Therapeutics, Inc., priority 2020, dated 2024).

Molecules are shown by their SMILES. Bounds are passed on as bounds.

Broadly, the IC50 is the concentration that gives 50% inhibition. High values mean weaker potency in that assay, low ones greater potency in that assay.

The experiment concerns the target T1, SARM1 (ARM-SAM-TIR, full length SARM1) (Homo sapiens, UniProt Q6SZW1).
T1 sequence (Q6SZW1 with tags, fused parts or gaps): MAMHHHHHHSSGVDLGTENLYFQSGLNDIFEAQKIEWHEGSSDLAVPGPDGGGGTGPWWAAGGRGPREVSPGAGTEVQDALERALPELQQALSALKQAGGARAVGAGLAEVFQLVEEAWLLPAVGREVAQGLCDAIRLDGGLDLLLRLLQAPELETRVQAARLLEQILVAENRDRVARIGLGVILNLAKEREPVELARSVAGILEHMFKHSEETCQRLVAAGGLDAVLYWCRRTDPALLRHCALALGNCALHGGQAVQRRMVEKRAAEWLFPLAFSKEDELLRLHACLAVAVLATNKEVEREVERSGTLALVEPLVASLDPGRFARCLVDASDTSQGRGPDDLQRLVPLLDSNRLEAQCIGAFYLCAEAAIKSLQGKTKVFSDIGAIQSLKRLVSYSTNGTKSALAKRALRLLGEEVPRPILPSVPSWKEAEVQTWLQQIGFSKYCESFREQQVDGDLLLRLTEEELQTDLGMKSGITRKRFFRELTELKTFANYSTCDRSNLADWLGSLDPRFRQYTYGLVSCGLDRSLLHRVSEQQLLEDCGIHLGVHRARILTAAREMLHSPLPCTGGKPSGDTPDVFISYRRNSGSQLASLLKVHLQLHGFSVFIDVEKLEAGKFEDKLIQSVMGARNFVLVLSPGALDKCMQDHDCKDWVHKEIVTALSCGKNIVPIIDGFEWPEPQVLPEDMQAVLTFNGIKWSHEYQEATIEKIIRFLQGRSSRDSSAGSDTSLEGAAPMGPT
The experiment in a line: biochemical. The settings on record: SARM1 IC50 (nM), ARM-SAM-TIR lysate 5 μg/mL from NRK1-HEK293T cells, 2 h pre-incubation, 5 uM NAD+, 2 hr room temperature.
Experimental: This assay makes use of full length SARM1, which encompasses the ARM, SAM and TIR domains.
Preparation of ARM-SAM-TIR lysate (STL)
NRK1-HEK293T cells were seeded onto 150 cm^2 plates at 20×10^6 cells per plate. The next day, the cells were transfected with 15 g ARM-SAM-TIR expression plasmid, SEQ ID NO: 1.
The cultures were supplemented with 1 mM NR at time of transfection to minimize toxicity from ARM-SAM-TIR overexpression. Forty-eight hours after transfection, cells were harvested, pelleted by centrifugation at 1,000 rpm (Sorvall ST 16R centrifuge, Thermo Fisher), and washed once with cold PBS (0.01 M phosphate buffered saline NaCl 0.138 M; KCl 0.0027 M; pH 7.4). The cells were resuspended in PBS with protease inhibitors (cOmplete™ protease inhibitor cocktail, Roche product #11873580001) and cell lysates were prepared by sonication (Branson Sonifer 450, output=3, 20 episodes of stroke). The lysates were centrifuged (12,000×g for 10 min at 4° C.) to remove cell debris and the supernatants (containing ARM-SAM-TIR protein) were stored at −80° C. for later use in the in vitro ARM-SAM-TIR NADase assay (see below). Protein concentration was determined by the Bicinchoninic (BCA) method and used to normalize lysate concentrations.
ARM-SAM-TIR IC50 assay of Formula I compounds.
The enzymatic assay was performed in a 384-well polypropylene plate in Dulbecco's PBS buffer in a final assay volume of 20 μL. ARM-SAM-TIR lysate with a final concentration of 5 μg/mL was pre-incubated with the respective compound at 1% DMSO final assay concentration over 2h at room temperature. The reaction was initiated by addition of 5 uM final assay concentration of NAD+ as substrate. After a 2 hr room temperature incubation, the reaction was terminated with 40 μL of stop solution of 7.5% trichloroactetic acid in acetonitrile. The NAD+ and ADPR concentrations were analyzed by a RapidFire High Throughput Mass Spectrometry System (Agilent Technologies, Santa Clara, Calif.) using an API4000 triple quadrupole mass spectrometer (AB Sciex Framingham, Mass.).
Turning to `N[C@H]1CC(Cc2ccc(Cl)nc2)C(=O)N(c2nnc(-c3ccncc3)[nH]2)C1` (single isomer, unassigned) [Compound I-61], the concentration for half-maximal inhibition (IC50) is over 1000 nM.

Take `O=C1C(Cc2ccc(Cl)cc2)CCN1c1nnc(-c2ccncc2)[nH]1` (single isomer, unassigned) [I-4* (peak 1)]: the IC50 is under 50 nM.

Regarding `O=C1C(Cc2ccc(Cl)cc2)CCCN1c1nnc(-c2ccncc2)[nH]1` (single isomer, unassigned) [I-5* (peak 1)], the concentration for half-maximal inhibition (IC50) was under 50 nM.

Consider `Cc1c(N2CCC(Cc3ccc(Cl)cc3)C2=O)n[nH]c1-c1ccncc1` (single isomer, unassigned) [I-6* (peak 1)], for which the half-inhibitory concentration (IC50) was 51 to 100 nM.

`O=C1C(Cc2ccc(F)cc2)CCN1c1nnc(-c2ccncc2)[nH]1` (single isomer, unassigned) [I-7* (peak 1)] registered a half-inhibitory concentration (IC50) of 101 to 500 nM.

The molecule `O=C1C(Cc2ccc(F)cc2)CCN1c1nnc(-c2ccncc2)[nH]1` (single isomer, unassigned) [I-7* (peak 2)] showed an IC50 of under 50 nM.

Consider `O=C1C(Cc2ccc(Cl)c(F)c2)CCN1c1nnc(-c2ccncc2)[nH]1` (single isomer, unassigned) [I-8* (peak 1)], for which the half-maximal inhibitory concentration (IC50) was under 50 nM.

`O=C1C(Cc2ccc(Cl)nc2)CCN1c1nnc(-c2ccncc2)[nH]1` (single isomer, unassigned) [I-9* (peak 1)] came in with an IC50 of 101 to 500 nM.

Molecule `O=C1C(Cc2ccc(Cl)nc2)CCN1c1nnc(-c2ccncc2)[nH]1` (single isomer, unassigned) [I-9* (peak 2)] came in with a half-inhibitory concentration (IC50) of 51 to 100 nM.

Turning to `O=C1C(Cc2ccc(F)c(F)c2)CCN1c1nnc(-c2ccncc2)[nH]1` (single isomer, unassigned) [I-11* (peak 1)], the IC50 is under 50 nM.

`O=C1C(Cc2ccc(F)c(F)c2)CCN1c1nnc(-c2ccncc2)[nH]1` (single isomer, unassigned) [I-11* (peak 2)] had an IC50 of 51 to 100 nM.

Regarding `O=C1C(Cc2ccc(F)c(F)c2)CCN1c1cc(-c2ccncc2)n[nH]1` (single isomer, unassigned) [I-16* (peak 1)], the half-maximal inhibitory concentration (IC50) was under 50 nM.

In the case of `O=C1C(Cc2ccc(Cl)cc2)CCCN1c1cc(-c2ccncc2)n[nH]1` (single isomer, unassigned) [I-19* (peak 1)], the IC50 is under 50 nM.

For the molecule `O=C1C(Cc2ccc(Cl)c(F)c2)CCCN1c1cc(-c2ccncc2)n[nH]1` (single isomer, unassigned) [I-20* (peak 1)], the IC50 is under 50 nM.

With `O=C1C(Cc2ccc(Cl)nc2)CCCN1c1cc(-c2ccncc2)n[nH]1` (single isomer, unassigned) [I-21* (peak 1)], the IC50 fell in the range of 101 to 500 nM.

As to `O=C1C(Cc2ccc(Cl)nc2)CCCN1c1cc(-c2ccncc2)n[nH]1` (single isomer, unassigned) [I-21* (peak 2)], the IC50 is under 50 nM.

For the molecule `N#Cc1ccc(CC2CCN(c3[nH]nc(-c4ccncc4)c3F)C2=O)cc1F` (single isomer, unassigned) [I-25* (peak 1)], the IC50 lay in the range of 101 to 500 nM.

In the case of `N#Cc1ccc(CC2CCN(c3[nH]nc(-c4ccncc4)c3F)C2=O)cc1F` (single isomer, unassigned) [I-25* (peak 2)], the IC50 was under 50 nM.

Turning to `N#Cc1ccc(CC2CCN(c3nnc(-c4ccncc4)[nH]3)C2=O)cc1F` (single isomer, unassigned) [I-26* (peak 1)], the IC50 is 101 to 500 nM.

As to `O=C1C(Cc2ccc(F)nc2)CCN1c1[nH]nc(-c2ccncc2)c1Cl` (single isomer, unassigned) [I-32* (peak 1)], the half-maximal inhibitory concentration (IC50) was 51 to 100 nM.

As for `O=C1C(Cc2ccc(F)nc2)CCN1c1[nH]nc(-c2ccncc2)c1Cl` (single isomer, unassigned) [I-32* (peak 2)], the half-maximal inhibitory concentration (IC50) is under 50 nM.

The molecule `O=C1C(Cc2ccc(F)nc2)CCN1c1[nH]nc(-c2ccncc2)c1F` (single isomer, unassigned) [I-33* (peak 1)] returned an IC50 of 51 to 100 nM.

The molecule `O=C1C(Cc2ccc(F)nc2)CCN1c1[nH]nc(-c2ccncc2)c1F` (single isomer, unassigned) [I-33* (peak 2)] had an IC50 of under 50 nM.

Regarding `O=C1C(Cc2ccc(Cl)nc2)CCN1c1[nH]nc(-c2ccncc2)c1Cl` (single isomer, unassigned) [I-34* (peak 1)], the IC50 was under 50 nM.

With `N#Cc1ccc(CC2CCN(c3cc(-c4ccncc4)n[nH]3)C2=O)cc1F` (single isomer, unassigned) [I-37* (peak 1)], the 50% inhibitory concentration (IC50) fell in the range of 51 to 100 nM.

On to `O=C1C(Cc2ccc(Cl)cc2)CNCCN1c1nc(-c2ccncc2)n[nH]1` (single isomer, unassigned) [I-38* (peak 1)], for which the IC50 lay within 501 to 1000 nM.

Molecule `O=C1C(Cc2ccc(Cl)cc2)CNCCN1c1nc(-c2ccncc2)n[nH]1` (single isomer, unassigned) [I-38* (peak 2)] had an IC50 of over 1000 nM.

In the case of `O=C1C(Cc2ccc(F)nc2)CCN1c1nnc(-c2ccncc2)[nH]1` (single isomer, unassigned) [I-39* (peak 1)], the IC50 was in the range of 101 to 500 nM.

The molecule `O=C1C(Cc2ccc(Cl)nc2)CCCCN1c1cc(-c2ccncc2)n[nH]1` (single isomer, unassigned) [I-40* (peak 1)] returned an IC50 of over 1000 nM.

The molecule `O=C1C(Cc2ccc(Cl)nc2)CCCCN1c1cc(-c2ccncc2)n[nH]1` (single isomer, unassigned) [I-40* (peak 2)] gave an IC50 of 101 to 500 nM.

Consider `Cc1c(-c2ccncc2)n[nH]c1N1CCC(Cc2cnc(Cl)c(F)c2)C1=O` (single isomer, unassigned) [I-41* (peak 1)], for which the concentration for half-maximal inhibition (IC50) is 101 to 500 nM.

Take `O=C1N(c2nc(-c3ccncc3)n[nH]2)CCC1(F)Cc1ccc(Cl)nc1` (single isomer, unassigned) [I-42* (peak 1)]: the IC50 was over 1000 nM.

On to `O=C1C(Cc2ccc(Cl)cc2)OCCN1c1cc(-c2ccncc2)n[nH]1` (single isomer, unassigned) [I-47* (peak 1)], for which the half-inhibitory concentration (IC50) is 51 to 100 nM.

`O=C1C(Cc2ccc(Cl)cc2)OCCN1c1cc(-c2ccncc2)n[nH]1` (single isomer, unassigned) [I-47* (peak 2)] showed an IC50 of over 1000 nM.

With `Cc1c(-c2ccncc2)n[nH]c1N1CCC(Cc2ccc(Cl)nc2)C1=O` (single isomer, unassigned) [I-48* (peak 1)], the half-maximal inhibitory concentration (IC50) fell in the range of 101 to 500 nM.

As to `Cc1c(-c2ccncc2)n[nH]c1N1CCC(Cc2ccc(F)c(F)c2)C1=O` (single isomer, unassigned) [I-49* (peak 1)], the IC50 fell in the range of 101 to 500 nM.

As to `Cc1c(-c2ccncc2)n[nH]c1N1CCC(Cc2ccc(F)c(F)c2)C1=O` (single isomer, unassigned) [I-49* (peak 2)], the concentration for half-maximal inhibition (IC50) is 51 to 100 nM.

Take `CC1(Cc2ccc(Cl)cc2)CCCN(c2nc(-c3ccncc3)n[nH]2)C1=O` (single isomer, unassigned) [I-54* (peak 1)]: the IC50 lay within 501 to 1000 nM.

On to `CC1(Cc2ccc(Cl)cc2)CCCN(c2nc(-c3ccncc3)n[nH]2)C1=O` (single isomer, unassigned) [I-54* (peak 2)], for which the IC50 fell in the range of 101 to 500 nM.

As for `O=C1C(Cc2ccc(Cl)nc2)CCCN1c1nnc(-c2ccncc2)[nH]1` (single isomer, unassigned) [I-55* (peak 1)], the IC50 is 51 to 100 nM.

The molecule `N[C@H]1CC(Cc2ccc(Cl)nc2)C(=O)N(c2cc(-c3ccncc3)n[nH]2)C1` (single isomer, unassigned) [I-60* (peak 1)] yielded an IC50 of over 1000 nM.

`N[C@H]1CC(Cc2ccc(Cl)nc2)C(=O)N(c2cc(-c3ccncc3)n[nH]2)C1` (single isomer, unassigned) [I-60* (peak 2)] returned an IC50 of 101 to 500 nM.

The molecule `O=C1C(Cc2cnc(Cl)c(F)c2)CCN1c1cc(-c2ccncc2)n[nH]1` (single isomer, unassigned) [I-65* (peak 1)] gave an IC50 of under 50 nM.

Consider `O=C1C(Cc2cnc(Cl)c(F)c2)CCCN1c1cc(-c2ccncc2)n[nH]1` (single isomer, unassigned) [I-66* (peak 1)], for which the IC50 was under 50 nM.

`O=C1C(Cc2cnc(Cl)c(F)c2)CCCN1c1cc(-c2ccncc2)n[nH]1` (single isomer, unassigned) [I-66* (peak 2)] returned a half-maximal inhibitory concentration (IC50) of 101 to 500 nM.

With `O=C1C(Cc2ccc(F)nc2)CCN1c1cc(-c2ccncc2)n[nH]1` (single isomer, unassigned) [I-67* (peak 1)], the half-maximal inhibitory concentration (IC50) was 51 to 100 nM.

As to `O=C1C(Cc2ccc(F)nc2)CCN1c1cc(-c2ccncc2)n[nH]1` (single isomer, unassigned) [I-67* (peak 2)], the IC50 is under 50 nM.

`[2H]C([2H])(c1ccc(Cl)nc1)C1([2H])C(=O)N(c2cc(-c3ccncc3)n[nH]2)C([2H])([2H])C([2H])([2H])C1([2H])[2H]` (single isomer, unassigned) [I-79* (peak 1)]: the IC50 was under 50 nM.

`[2H]C([2H])(c1ccc(Cl)nc1)C1([2H])C(=O)N(c2cc(-c3ccncc3)n[nH]2)C([2H])([2H])C([2H])([2H])C1([2H])[2H]` (single isomer, unassigned) [I-79* (peak 2)] gave an IC50 of 101 to 500 nM.

As to `O=C1[C@H](Cc2ccc(Cl)cc2)NCCN1c1cc(-c2ccncc2)n[nH]1` [Compound I-1-a], the half-inhibitory concentration (IC50) lay in the range of 101 to 500 nM.
